Experimental data from patent publication US6395717B1, “Therapeutic drug for endotoxin blood symptom and multi-organ failure induced thereby” (priority 1995, dated 2002).

Experiments:
[1] = test system: renal failure induced by endotoxin; assay: Effect upon renal failure induced by endotoxin (kidney clearance of inulin and paraaminohippuric acid); type: in vivo, Whister-strain rats; conditions: 10 mg/Kg intravenous
Experimental: Into each of ten Whister-strain rats (8 to 9 week age) having undergone cannulation at the carotid canal and the bladder was intraveneously drip-infused a 4% manitol solution containing inulin (5 mg/ml) and paraaminohippuric acid (2.5 mg/ml) at a rate of 0.1144 ml/min. Thirty minutes thereafter, a physiological saline solution of sialic acid ([…]) was administered, at a rate of 0.2 ml/100 g (dosage: 10 mg/Kg), to each of the rats administered with sialic acid, whereas the same amount of physiological saline was rapidly interveneously injected to the control rats. Another thirty minutes thereafter, a physiological saline solution of endotoxin was interaveneously injected to the rats (dosage: 0.25 mg/Kg). Then, blood and urine were sampled over 90 minutes, and the concentrations of inulin and paraaminohippuric acid were measured. A kidney clearance was calculated according to the following formula. Urine was collected at an interval of 15 minutes after the administration of sialic acid or physiological saline (in FIG. 2, −15 to 0 minutes, 0 to 15 minutes, 15 to 30 minutes, 30 to 45 minutes and 45 to 60 minutes), and blood was sampled at a middle point of a time period during urine-collecting. The clearance values are shown at such middle points for the respective fractions.
Kidney clearance=Amount of the drug recovered in urine collected in the collecting time period÷Concentration of the drug in plasma at the middle point
The concentration of inulin was measured by the Dishe & Borefreund's method (Z. Dishe and E. Borefreund, J. Biol. Chem., 192, 583-587 (1951)), and the concentration of paraaminohippuric acid was measured by the Marshall's method (E. K. Marshall, J. Biol. Chem., 122, 263-273 (1937)).
Results of the ratio in the filtering speed through glomerulus are shown in FIG. 2, and results of the ratio in renal plasma flow are in FIG. 3. In both the figures, the ordinate means the ratio in the filtering speed through glomerulus or the ratio in the renal plasma flow for 30 minutes between the intraveneous dip infusion of inulin and paraaminohippuric acid and the intraveneous injection of sialic acid or physiological saline.

[2] = test system: endotoxin-shock; assay: Effect of sialic acid in reduction of endotoxin-shock (survival 24 hours after endotoxin); type: in vivo, SMA-strain male mice; conditions: living mice 24 hours later
Experimental: Tests were conducted with respect to endotoxin-sensitive, SMA-strain male mice (20 to 30 g) used: (1) sixteen control mice, (2) eight mice each administrated with sialic acid and (3) six mice each administrated with a polymer of sialic acid. (1) With respect to the control mice, 0.1 ml/10 g of physiological saline was peritoneally administrated 30 minutes before the administration of an endotoxin. (2) With respect to the mice administrated with sialic acid, a solution in which 100 mg of sialic acid was dissolved in 10 ml of physiological saline or a ten-times diluted solution thereof was peritoneally administrated to the mouse at a rate of 0.1 ml/10 g of the mouse (Dosage: 100 mg/Kg, 10 mg/Kg). (3) With respect to the mice administrated with the sialic acid polymer, a solution in which 100 mg of a dimer or a trimmer of sialic acid was dissolved in 10 ml of physiological saline or a ten-times was peritoneally administrated to the mouse at a rate of 0.1 ml/10 g (Dosage: 100 mg/Kg). Thirty minutes after the administration, a physiological saline solution of endotoxin (10 mg/ml) was peritoneally administrated to the mouse at a rate of […] (administrated amount: 100 mg/Kg). Then, the number of living mice 24 hours later was checked. […]

[3] = endotoxin 0.25 mg/Kg iv 30 minutes later, 30 minutes after endotoxin administration

Q: Which results are given for CC(=O)N[C@H]1[C@H]([C@H](O)[C@H](O)CO)OC(O)(C(=O)O)C[C@@H]1O (stereo partly drawn) [sialic acid, N-acetylneuraminic acid]?
A: influence on the ratio in the filtering speed through glomerulus and the ratio in the renal plasma flow, sialic acid alone ([1]; before endotoxin administration): no influence was observed; decrease of the ratio in the filtering speed through glomerulus [1, 3]: 30%; decrease of the ratio in the renal plasma flow [1, 3]: 20%; reduction in both the ratio in the filtering speed through glomerulus and the ratio in the renal plasma flow due to endotoxin ([1]; risk degree of 5% versus control rats): significantly prevented; survival rate ([2]; 10 mg/Kg peritoneally 30 minutes before endotoxin 100 mg/Kg peritoneally, n=8): 50%; survival rate ([2]; 100 mg/Kg peritoneally 30 minutes before endotoxin 100 mg/Kg peritoneally): 87.5%
